test system: Plasmodium falciparum; experiment: GSK_TCMDC: Inhibition of Plasmodium falciparum 3D7 in whole erythrocytes, using parasite LDH activity as an index of growth.; assay type: functional, organism-based; conditions: Plasmodium falciparum, 3D7

| Structure (SMILES) | XC50 |
| --- | --- |
| Cc1ccccc1C1CCN(C2CCC(NC(=O)c3ccc(-c4ccccc4)s3)CC2)CC1 (stereo not given) | 661 nM |
| CCOC(=O)c1ccc(NC(=O)Nc2cccc(-c3ccc(-c4nc5cc(F)ccc5[nH]4)cc3)c2)cc1 | 94.5 nM |
| Cc1cccc2nc(-c3cccc(-c4cccc(NC(=O)CC5NC(=O)c6ccccc65)c4)c3)[nH]c12 (stereo not given) | 1030 nM |
| O=S(=O)(NCCN1CCCC1)c1ccc(-c2ccc(CNCc3ccc(F)cc3)cc2)cc1 | 794 nM |
| CCOc1ccc(S(=O)(=O)N(C)c2ccc(OCC(=O)Nc3nccs3)cc2)cc1 | 961 nM |
| COc1cccc(C(=O)N2CCOC(CCN3CCC(c4ccccc4)CC3)(c3ccc(Cl)c(Cl)c3)C2)c1 (stereo not given) | 505 nM |
| C#CCNCc1ccc(-c2ccc(-c3nc4cc(C(F)(F)F)ccc4[nH]3)s2)cc1 | 744 nM |
| Cc1c(CN2CCC(N3CCC(C(=O)NC4CC4)CC3)CC2)[nH]c2c(Cl)cccc12 | 1190 nM |
| CCCc1cc(C(=O)N[C@@H](Cc2ccccc2)[C@H](O)CNC(C)(C)c2cccc(OC)c2)c(F)c(N2CCCC2=O)c1 | 95.7 nM |
| COc1ccc(-c2ccc(NC(=O)c3ccc(Cl)cc3)cc2)cc1CN(C)CCO | 813 nM |
| CCc1cn2c3c(cc(C(=O)N[C@@H](Cc4cccc(Cl)c4)[C@H](O)CNC4CCCCC4)cc13)N(C)S(=O)(=O)CC2 | 57.1 nM |
| CC(C)(C)c1ccc(NC(=O)c2ccc(CN3CCCN(Cc4cccc(F)c4)CC3)cc2)cc1 | 1120 nM |
| O=C(Nc1ccnc2ccccc12)NC1CCN(CCc2ccccc2)CC1 | 364 nM |
| Cc1cc2ncn(-c3ccnc(N4CCN(CCCN5CCCC5)CC4)n3)c2cc1C | 828 nM |
| CCOC(=O)C(NC(=O)Cc1ccccc1)C(C)C (stereo not given) | 295 nM |
| CC(C)c1ccc(OCCCON2C(=N)N=C(N)NC2(C)C)cc1 | 3.2 nM |
| N#Cc1ccc(N(CCOC(=O)c2ccccc2)Cc2ccccc2C(F)(F)F)cc1C(F)(F)F | 921 nM |
| COc1cccc(Nc2nccc(-c3c(-c4cccc(NC(=O)c5c(F)cccc5F)c4)nn4ccccc34)n2)c1 | 178 nM |
| CN1CCCN(c2ccnc3cc4c(cc23)N(C(=O)c2ccccc2Cl)CC4)CC1 | 1180 nM |
| O=C1CCCN1CCCNCc1cccc(-c2cccc(-c3nc4cc(F)ccc4[nH]3)c2)c1 | 598 nM |
| CC1CCN(C(=O)[C@H](Cc2c[nH]c3ccccc23)NS(=O)(=O)c2ccc(Cl)cc2)CC1 | 667 nM |
| COc1cccc(CN2Cc3ccccc3OC3(CCN(Cc4c[nH]c5cnccc45)CC3)C2)c1 | 1300 nM |
| CCNc1cc(C(=O)N[C@@H](Cc2ccccc2)[C@H](O)CNC(C)CCCC(C)C)cc(N2CCCS2(=O)=O)c1 (stereo not given in full) | 219 nM |
| CCN(CC)Cc1cc(Nc2c3ccc(Cl)cc3nc3cccc(OC)c23)ccc1O | 33.4 nM |

| Structure (SMILES) | XC50 |
| --- | --- |
| O=C(Nc1ccc(Cl)cc1)Nc1cccc(-c2cccc(-c3nc4ccccc4[nH]3)c2)c1 | 131 nM |
| CN(C)c1c(CNCCCCCCNCc2ccc3ccccc3c2N(C)C)ccc2ccccc12 | 463 nM |
| O=C(Nc1cccc(-c2cccc(-c3nc4cc(F)ccc4[nH]3)c2)c1)c1c[nH]cn1 | 459 nM |
| FC(F)(F)c1ccc(Nc2nnnc3ccccc23)cc1 | 692 nM |
| Cc1[nH]c(C)c(C(F)(F)F)c(=O)c1-c1ccc(Oc2ccc(OC(F)(F)F)cc2)cc1 | 173 nM |
| Nc1nc(N)c2c(ccc3c2ccn3Cc2ccc(Br)cc2)n1 | 3.2 nM |
| Cc1[nH]c(C)c(-c2ccc(OCCCCSc3ccncc3)cc2)c(=O)c1Br | 246 nM |
| Cc1sc2nc(CSc3ccccc3)nc(N3CCN(CC(=O)NC4CC4)CC3)c2c1C | 462 nM |
| N=C(N)Nc1ccc(OCCCCCOc2ccc(NC(=N)N)cc2Br)c(Br)c1 | 262 nM |
| Cn1cc(CCNc2ccnc(N3CCC(c4ncc[nH]4)CC3)n2)c2ccccc21 | 1200 nM |
| CCN(CCCN1CCCCC1)c1cc(C)nc(Nc2cc(C)ccc2C)n1 | 664 nM |
| O=C(NC1CCC(CN2CCC(c3c[nH]c4ccccc34)CC2)CC1)c1cc(-c2ccc(F)cc2F)ccc1O (stereo not given) | 356 nM |
| Fc1ccc2[nH]c(-c3cccc(-c4cccc(CNCCc5ccncc5)c4)c3)nc2c1 | 170 nM |
| O=c1c2c([nH]c3cc(Cl)ccc13)CCCC2 | 810 nM |
| O=C(Nc1ccc(C(F)(F)F)cc1)c1ccc(NCCCN2CCCCCC2)c([N+](=O)[O-])c1 | 315 nM |
| COc1ccc(CCON2C(=N)N=C(N)NC2(C)C)cc1OC | 5.91 nM |
| CC(C)[C@H](NC(=O)c1c(F)cccc1F)C(=O)Nc1ccc(Cc2nc3ccccc3s2)cc1 | 498 nM |
| CC1CC(C)CN(CC(O)CNC(=O)Nc2ccc(Br)cc2)C1 (stereo not given) | 1050 nM |
| CC(C)Cn1cc(C2CCN(CCN3CCC(CNC(=O)c4ccc(NC(=O)c5ccc(Cl)cc5)cc4)CC3)CC2)c2ccccc21 | 251 nM |
| COc1ccc(-c2cnc3ccc(NCc4ccc(F)cc4)nn23)cc1OC | 834 nM |
| CC(C)(C)c1nn(-c2ccc(Cl)cc2)c2[nH]c(=O)c(CNCc3ccc4c(c3)OCO4)cc12 | 810 nM |
| CCN(CCCN1CCCCC1)c1cc(C)nc(Nc2cc(Br)ccc2C)n1 | 405 nM |
| CC1CC(C)CN(S(=O)(=O)c2cc(C(=O)Nc3cccc([N+](=O)[O-])c3)ccc2Br)C1 (stereo not given) | 898 nM |
| NOCCCCOc1ccc(Cl)cc1 | 785 nM |

| Structure (SMILES) | XC50 |
| --- | --- |
| CN1CCC(NCc2cccc(-c3cccc(-c4nc5cc(C(F)(F)F)ccc5[nH]4)c3)c2)CC1 | 142 nM |
| CCOc1cc2ncnc(Nc3ccc(OCc4c(Cl)cccc4Cl)c(OC)c3)c2cc1OCC | 1050 nM |
| COc1cc2nc(NCCc3ccccc3)nc(NCc3ccc(C#N)cc3)c2cc1OC | 145 nM |
| Cc1c(CC(=O)N(C)C2CCN(CCCCCNC(=O)/C=C/c3ccc(Cl)c(Cl)c3)CC2)sc2ccc(Cl)cc12 | 1160 nM |
| CS(=O)(=O)CCNCc1nc(-c2ccc3ncnc(Nc4ccc(OCc5ccccc5)c(Cl)c4)c3c2)cs1 | 802 nM |
| COc1ccc(CC(C)NCC(O)c2cccc(Cl)c2F)cc1 (stereo not given) | 1080 nM |
| CC[C@H]1CN2CC[C@H]1C[C@H]2[C@@H](O)c1cc(OCCCN(C)C)nc2ccc(OC)cc12 | 132 nM |
| O=C1CN(C(=O)CCC2CCCC2)C(c2ccc(F)cc2)c2cc(F)ccc2N1 (stereo not given) | 168 nM |
| Cc1nc(C)c(-c2ccc(Oc3ccc(Cl)cc3)c(Cl)c2)c(O)c1Br | 495 nM |
| CCn1ncc2c(N3CCCC3=O)cc(C(=O)N[C@@H](Cc3ccccc3)[C@H](O)CNC(C)(C)c3cccc(C(F)(F)F)c3)cc21 | 149 nM |
| CC(C)(C)c1ccc(NC(=O)c2cccc(CN3CCN(Cc4cccc(O)c4)CC3)c2)cc1 | 1400 nM |
| COc1ccc(C(=O)N[C@@H](CC(C)C)C(=O)N[C@H](/C=N/NC(=O)c2ccccc2)CCc2ccccc2)cc1OCCN1CCOCC1 | 173 nM |
| COC(=O)c1cccc(OCCNC2CCN(C[C@H](O)c3ccnc4ccc(OC)cc34)CC2)c1 | 342 nM |
| Cc1nnc(N2C(=N)SC(=Cc3ccc(-c4ccc(OC(F)(F)F)cc4)o3)C2=O)s1 | 526 nM |
| COc1ccc(NC(=O)Nc2cccc(-c3cccc(-c4nc5cc(F)ccc5[nH]4)c3)c2)cc1 | 171 nM |
| CC(C)CCn1c(Sc2ccc(C#N)c([N+](=O)[O-])c2)nnc1-c1ccc(Cl)cc1 | 875 nM |
| O=C(NCC1CC1)C1CCN(C(c2ccccc2)c2nc3ccccc3s2)CC1 (stereo not given) | 1020 nM |
| CN(C)CCCOc1ccc(CNCC(C)(C)c2nc(-c3ccc(Cl)c(O)c3)c(-c3ccncc3)[nH]2)cc1 | 708 nM |
| CCC[C@@H](C(=O)NCCc1cccc(OC)c1)N1C(=O)c2c(ccc(OC)c2OC)C1C(=O)Nc1c(C)cccc1C (stereo not given in full) | 808 nM |
| Cc1[nH]c2ccc(NS(C)(=O)=O)cc2c1C1CCN(CCC2CCN(C(=O)/C=C/c3ccc(Cl)c(Cl)c3)CC2)CC1 | 844 nM |
| Cc1cc(N2CCCC2)nc(Nc2ccc(NC(=O)C3CCCC3)cc2)n1 | 1110 nM |
| CCOCCCNc1sc(S(=O)(=O)c2ccccc2)nc1S(=O)(=O)c1ccc(C)cc1 | 809 nM |
| CCOc1ccc(NC(=O)c2cccc(CN3CCCN(Cc4cccc(O)c4)CC3)c2)cc1 | 1080 nM |
| NC(CC1CC(=O)N1CC(=O)O)C(=O)O (stereo not given) | 156 nM |

| Structure (SMILES) | XC50 |
| --- | --- |
| Cc1cc(NC(=O)[C@H](CC(C)C)Nc2ccc(C#N)c3ccccc23)ccc1F | 777 nM |
| CC(C)(C)C1CCc2onc(C(=O)Nc3cc(Cl)ccc3O)c2C1 (stereo not given) | 779 nM |
| CC(C)N1CCN(C(=O)c2ccc(CNCCCN3CCN(c4ccccc4C(F)(F)F)CC3)s2)CC1 | 837 nM |
| O=C(/C=C/c1ccc(Cl)cc1)NCCCCCN1CCC(C(=O)Nc2cccc(Cl)c2)CC1 | 853 nM |
| CCOC(=O)c1ccc(NC(=O)N(Cc2ccc(-c3cccc(CN4CCNCC4)c3)cc2)C2CCN(Cc3ccccc3)CC2)cc1 | 748 nM |
| O=[N+]([O-])c1ccc(C(O)CNCCc2ccccc2)cc1OCc1ccccc1 (stereo not given) | 912 nM |
| CC(=O)Nc1nc(C(=O)Nc2ccc(-c3cccc(-c4nc5ccccc5[nH]4)c3)cc2)cs1 | 552 nM |
| Cc1ccc(N2C(N)=NC(N)=NC2c2ccccc2)cc1 (stereo not given) | 56.6 nM |
| O=C(Cc1cccc(Cl)c1)Nc1cccc(-c2c[nH]c3nc(Nc4ccccc4)ncc23)c1 | 678 nM |
| N#Cc1ccc2c(c1)CCN(CCCn1c(-c3ccc4ccccc4c3)nc3ccncc31)CC2 | 198 nM |
| COc1ccccc1-c1cc(C(=O)N2CCN(S(=O)(=O)c3ccc(C)cc3)CC2)[nH]n1 | 1160 nM |
| COc1ccc2nc(-c3ccc(F)cc3)cc([C@@H](O)[C@@H]3C[C@@H]4CCN3CC4C=NO)c2c1 (stereo not given in full) | 248 nM |
| CC1=C(C(=O)OC(C)C)C(c2ccccc2Cl)C2=C(CC(c3ccccc3)CC2=O)N1 (stereo not given) | 850 nM |
| O=C(/C=C/c1ccc(Cl)c(Cl)c1)NCC1CCCC(CN2CCC(c3c[nH]c4ccccc34)CC2)C1 (stereo not given) | 726 nM |
| CCCCCCN(CCCCCC)CC(O)c1cc(-c2ccc(Cl)cc2)nc2c(C)cc(C)cc12 (stereo not given) | 67.3 nM |
| CCN(CCCN1CCCCC1)c1cc(C)nc(Nc2cc(C(F)(F)F)ccc2C)n1 | 862 nM |
| CCOC(=O)CNCC(=O)c1ccc(OCc2ccccc2)cc1 | 161 nM |
| COc1cc2c(=O)c(Cc3ccc(Cl)cc3)c(C)[nH]c2cc1F | 1160 nM |
| COc1cc(Cc2cnc(N)nc2N)cc(CC(C)O)c1O (stereo not given) | 843 nM |
| CN1CCC(C(=O)Nc2cccc(-c3ccc(-c4nc5cc(F)ccc5[nH]4)cc3)c2)CC1 | 706 nM |
| CNS(=O)(=O)Cc1ccc(Nc2nccc(Nc3cccc4c3cnn4C(=O)Nc3ccccc3)n2)cc1 | 959 nM |
| CCc1c(C)nc(-n2nc(C)cc2NC(=O)CCc2ccccc2)[nH]c1=O | 752 nM |
| CC(C)(C)Cn1cc(-c2ccc(C(=O)NCCc3ccc(S(C)(=O)=O)cc3)cc2)c(N)n1.CC(C)(C)Cn1ncc(-c2ccc(C(=O)NCCc3ccc(S(C)(=O)=O)cc3)cc2)c1N | 647 nM |

Source: ChEMBL document CHEMBL1157539, “Thousands of chemical starting points for antimalarial lead identification” (Nature, 2010)
